Assay results reported in BigSolDB 2.1.

COc1ccc(Cl)cc1C(=O)NCCc1ccc(S(=O)(=O)NC(=O)NC2CCCCC2)cc1
solubility (mole fraction)
Conditions	283.15 K	288.15 K	293.15 K	298.15 K	303.15 K	308.15 K	313.15 K	318.15 K	323.15 K
in MIBK	0.000198	0.000227	0.000276	0.000336	0.000426	0.000529	0.000655	0.000789	0.000908
in acetone	0.000471	0.000568	0.00069	0.000894	0.00109	0.00134	0.00171	0.00214	0.00261
in acetonitrile	5.25e-05	7.15e-05	9.85e-05	0.000131	0.000163	0.000225	0.000316	0.000418	0.000558
in ethanol	0.000108	0.00015	0.000188	0.000249	0.000316	0.000412	0.000591	0.000865	0.00116
in ethyl acetate	9.01e-05	0.000121	0.00015	0.000181	0.000226	0.00029	0.000375	0.000486	0.000627
in isopropanol	7.55e-05	8.89e-05	0.000126	0.000162	0.000207	0.000271	0.000401	0.000619	0.000934
in methanol	0.000124	0.000165	0.00021	0.000284	0.000355	0.000488	0.000695	0.00105	0.00143
in methyl acetate	0.000127	0.000164	0.000202	0.000246	0.000296	0.000372	0.000492	0.000629	0.000769
in n-butanol	0.000186	0.000223	0.000242	0.000284	0.000334	0.000445	0.000646	0.000922	0.00135
in n-propanol	0.0001	0.000125	0.000163	0.000225	0.000286	0.000381	0.000538	0.000729	0.000983
in sec-butanol	6.35e-05	7.97e-05	0.000104	0.000141	0.000184	0.000248	0.000365	0.000568	0.000887
